Assay results: patent publication US20070128217A1 (priority 2003, published 2007)

Legend:
[1] = system: control sera (pooled serum of ten healthy LUMC hospital workers; commercial negative donor pooled serum from the Dutch bloodbank); assay type: binding, human; design: Binding of Control serum LUMC to linear peptides / Binding of Control serum Blood-bank to linear peptides / Binding of Control serum LUMC to looped peptides / Binding of Control Serum Blood-Bank to Looped peptides / Binding of Control serum LUMC to linear peptides of the protein M of SARS-CoV Urbani / Binding of Control serum Blood-bank to linear peptides of the protein M of SARS-CoV Urbani / Binding of Control serum LUMC to looped peptides of the protein M of SARS-CoV Urbani / Binding of Control Serum Blood-Bank to Looped peptides of the protein M of SARS-CoV Urbani: unit not given here
[2] = system: antibodies in sera from SARS patients (sera 1a, 1b, 2, 6, 37, 62, London, SARS-yellow, SARS-green); assay type: binding, human; design: Binding of serum 6 to linear peptides of protein X1 of SARS-CoV Urbani / Binding of serum 37 to linear peptides of protein X1 of SARS-CoV Urbani / Binding of serum 6 to looped/cyclic peptide (PEPSCAN-ELISA) / Binding of serum 37 to looped/cyclic peptide (PEPSCAN-ELISA) / Binding of serum 37 to looped/cyclic peptides of protein X1 of SARS-CoV Urbani / Binding of serum 6 to linear peptides of protein X2 / Binding of serum 37 to linear peptides of protein X2 / Binding of serum 37 to looped/cyclic peptides of protein X2 of SARS-CoV Urbani / Binding of serum 6 to linear peptides of protein M of SARS-CoV Urbani / Binding of serum 37 to linear peptides of protein M of SARS-CoV Urbani / Binding of serum 6 to looped/cyclic peptides of protein M of SARS-CoV Urbani / Binding of serum 37 to looped/cyclic peptides of protein M of SARS-CoV Urbani / Binding of serum 6 to linear peptides of protein X3 of SARS-CoV Urbani / Binding of serum 37 to linear peptides of protein X3 of SARS-CoV Urbani / Binding of serum 37 to looped/cyclic peptides of protein X3 of SARS-CoV Urbani / Binding of serum 6 to linear peptides of protein X4 of SARS-CoV Urbani / Binding of serum 37 to linear peptides of protein X4 of SARS-CoV Urbani / Binding of serum 37 to looped/cyclic peptides of protein X4 of SARS-CoV Urbani / Binding of serum 6 to linear peptides of protein X5 of SARS-CoV Urbani / Binding of serum 37 to linear peptides of protein X5 of SARS-CoV Urbani / Binding of serum 37 to looped/cyclic peptides of protein X5 of SARS-CoV Urbani / Binding of serum 6 to linear peptides of protein N of SARS-CoV Urbani / Binding of serum 37 to linear peptides of protein N of SARS-CoV Urbani / Binding of serum 6 to linear peptide (PEPSCAN-ELISA) / Binding of serum 1a to looped/cyclic peptides of protein N of SARS-CoV Urbani / Binding of serum 1b to looped/cyclic peptides of protein N of SARS-CoV Urbani / Binding of serum 2 to looped/cyclic peptides of protein N of SARS-CoV Urbani / Binding of serum 6 to looped/cyclic peptides of protein N of SARS-CoV Urbani / Binding of serum 37 to looped/cyclic peptides of protein N of SARS-CoV Urbani / Binding of serum 62 to looped/cyclic peptides of protein N of SARS-CoV Urbani / Binding of serum London to looped/cyclic peptides of protein N of SARS-CoV Urbani / Binding of serum SARS-green to looped/cyclic peptides of protein N of SARS-CoV Urbani: unit not given here
[3] = system: rabbit serum obtained by immunizing a rabbit with the SARS-CoV strain Frankfurt 1; assay type: binding; design: Binding of a rabbit serum to linear peptides / Binding of a rabbit serum to looped peptides / Rabbit serum linear peptides / Rabbit serum looped peptides / Binding of a rabbit serum to linear peptides of protein N of SARS-CoV Urbani (Rabbit serum linear peptides) / Binding of a rabbit serum to looped/cyclic peptides of protein N of SARS-CoV Urbani (Rabbit serum looped peptides): unit not given here

SNRNRFLYIIKLVFL
Binding of Control Serum Blood-Bank to Looped peptides of the protein M of SARS-CoV Urbani [1]: 0.7 | Binding of Control serum Blood-bank to linear peptides of the protein M of SARS-CoV Urbani [1]: 0.7 | Binding of Control serum LUMC to linear peptides of the protein M of SARS-CoV Urbani [1]: 0.7 | Binding of Control serum LUMC to looped peptides of the protein M of SARS-CoV Urbani [1]: 0.9 | Binding of serum 1a to linear peptides of protein M of SARS-CoV Urbani [2]: 0.6 | Binding of serum 1b to linear peptides of protein M of SARS-CoV Urbani [2]: 0.5 | Binding of serum 2 to linear peptides of protein M of SARS-CoV Urbani [2]: 0.4 | Binding of serum 6 to linear peptides of protein M of SARS-CoV Urbani [2]: 0.5 | Binding of serum 37 to linear peptides of protein M of SARS-CoV Urbani [2]: 0.4 | Binding of serum 62 to linear peptides of protein M of SARS-CoV Urbani [2]: 0.4 | Binding of serum London to linear peptides of protein M of SARS-CoV Urbani [2]: 0.3 | Binding of serum SARS-green to linear peptides of protein M of SARS-CoV Urbani [2]: 0.4 | Binding of serum SARS-yellow to linear peptides of protein M of SARS-CoV Urbani [2]: 0.3 | Recognition of the peptide by sera of SARS-CoV infected individuals, and form (linear, looped/cyclic) in which it is recognized [2]: recognized in looped/cyclic form | Rabbit serum linear peptides [3]: 0.5 | Rabbit serum looped peptides [3]: 0.6

TALQELLIQQWIQFM
Binding of Control Serum Blood-Bank to Looped peptides [1]: 0.7 | Binding of Control serum Blood-bank to linear peptides [1]: 0.7 | Binding of Control serum LUMC to linear peptides [1]: 0.4 | Binding of Control serum LUMC to looped peptides [1]: 0.7 | Binding of serum 1a to linear peptides of protein X2 [2]: 0.8 | Binding of serum 1a to looped/cyclic peptides of protein X2 of SARS-CoV Urbani [2]: 0.7 | Binding of serum 1b to linear peptides of protein X2 [2]: 0.6 | Binding of serum 1b to looped/cyclic peptides of protein X2 of SARS-CoV Urbani [2]: 0.5 | Binding of serum 2 to linear peptides of protein X2 [2]: 0.3 | Binding of serum 2 to looped/cyclic peptides of protein X2 of SARS-CoV Urbani [2]: 0.4 | Binding of serum 6 to linear peptides of protein X2 [2]: 0.2 | Binding of serum 6 to looped/cyclic peptides of protein X2 of SARS-CoV Urbani [2]: 0.3 | Binding of serum 37 to linear peptides of protein X2 [2]: 0.5 | Binding of serum 37 to looped/cyclic peptides of protein X2 of SARS-CoV Urbani [2]: 0.5 | Binding of serum 62 to linear peptides of protein X2 [2]: 0.5 | Binding of serum 62 to looped/cyclic peptides of protein X2 of SARS-CoV Urbani [2]: 0.7 | Binding of serum London to linear peptides of protein X2 [2]: 0.4 | Binding of serum London to looped/cyclic peptides of protein X2 of SARS-CoV Urbani [2]: 0.2 | Binding of serum SARS-green to linear peptides of protein X2 [2]: 0.5 | Binding of serum SARS-green to looped/cyclic peptides of protein X2 of SARS-CoV Urbani [2]: 0.5 | Binding of serum SARS-yellow to linear peptides of protein X2 [2]: 0.4 | Binding of serum SARS-yellow to looped/cyclic peptides of protein X2 of SARS-CoV Urbani [2]: 0.5 | Binding of a rabbit serum to linear peptides [3]: 0.4 | Binding of a rabbit serum to looped peptides [3]: 0.4

GTRHTYQLRARSVSP
Binding of Control Serum Blood-Bank to Looped peptides [1]: 0.7 | Binding of Control serum Blood-bank to linear peptides [1]: 0.8 | Binding of Control serum LUMC to linear peptides [1]: 0.6 | Binding of Control serum LUMC to looped peptides [1]: 0.8 | Binding of serum 1a to linear peptides of protein X4 of SARS-CoV Urbani [2]: 0.7 | Binding of serum 1a to looped/cyclic peptides of protein X4 of SARS-CoV Urbani [2]: 0.8 | Binding of serum 1b to linear peptides of protein X4 of SARS-CoV Urbani [2]: 0.6 | Binding of serum 1b to looped/cyclic peptides of protein X4 of SARS-CoV Urbani [2]: 0.5 | Binding of serum 2 to linear peptides of protein X4 of SARS-CoV Urbani [2]: 0.8 | Binding of serum 2 to looped/cyclic peptides of protein X4 of SARS-CoV Urbani [2]: 1.0 | Binding of serum 6 to linear peptides of protein X4 of SARS-CoV Urbani [2]: 0.6 | Binding of serum 6 to looped/cyclic peptides of protein X4 of SARS-CoV Urbani [2]: 0.6 | Binding of serum 37 to linear peptides of protein X4 of SARS-CoV Urbani [2]: 0.8 | Binding of serum 37 to looped/cyclic peptides of protein X4 of SARS-CoV Urbani [2]: 0.7 | Binding of serum 62 to linear peptides of protein X4 of SARS-CoV Urbani [2]: 0.8 | Binding of serum 62 to looped/cyclic peptides of protein X4 of SARS-CoV Urbani [2]: 0.8 | Binding of serum London to linear peptides of protein X4 of SARS-CoV Urbani [2]: 0.8 | Binding of serum London to looped/cyclic peptides of protein X4 of SARS-CoV Urbani [2]: 0.3 | Binding of serum SARS-green to linear peptides of protein X4 of SARS-CoV Urbani [2]: 0.6 | Binding of serum SARS-green to looped/cyclic peptides of protein X4 of SARS-CoV Urbani [2]: 0.5 | Binding of serum SARS-yellow to linear peptides of protein X4 of SARS-CoV Urbani [2]: 0.8 | Binding of serum SARS-yellow to looped/cyclic peptides of protein X4 of SARS-CoV Urbani [2]: 0.7 | Recognition of the peptide by the rabbit serum [3]: recognized
